The target of data set [1] is T1, [V390I/Y410E/E274V]-CfEcR (Choristoneura fumiferana, UniProt O77240).
T1 construct: assay construct b835
The class given is cell-based. As to conditions: 3T3 Cells; for RMFI (relative maximum fold induction): relative to GS-E ligand. As to the method: (§1) Cellular gene switch assays were performed by transiently transfecting the following constructs in mouse embryonic fibroblast cells (NIH3T3). The wild-type D, E and F domains from Choristoneura fumiferana EcR or its V390I/Y410E/E274V mutant were fused to GAL4-DBD and placed under the control of the CMV promoter in the pBIND vector (Promega Corporation, Madison, Wis., USA). The DEF domains of EcRs shown were amplified using primers designed based on 20-25 nt sequences at the 5′ and 3′ ends. Restriction enzyme sites EcoR I/BamH I and Xba I were added to 5′ and 3′ primers respectively. The PCR products were digested with appropriate restriction enzymes and cloned into pBIND vector. The EcR LBDs cloned into pBIND vector were verified by sequencing. A chimeric RXR from Homo sapiens RXRP and Locusta migratoria RXR, fused to VP16-AD and placed under the control of an SV40e promoter, was constructed as previously described (Kumar P & Katakam A in Gene Transfer, Friedmann T and Rossi J, eds, pp. 643-651 (2007), Cold Spring Harbor Laboratory Press, Cold Spring Harbor, N.Y.). The inducible luciferase reporter plasmid pFRLuc (Stratagene Cloning Systems, La Jolla, Calif., USA), contains five copies of the GAL4 response element and a synthetic minimal promoter.
(§2) NIH3T3 cells were maintained at 37′C and 5% CO2 in Dulbecco's modified Eagle's medium (DMEM) supplemented with 10% bovine calf serum, both obtained from Mediatech Inc., Manassas, Va. Cells were planted in a 96-well plate at a density of 2,500 cells/well in 50 μL of growth medium. The following day cells were first treated with 35 μL of serum-free DMEM containing dimethyl sulfoxide (DMSO; control) or a DMSO solution containing ligand. Cells were then transfected with 15 μl of serum-free DMEM containing 0.04 μg of EcR construct, 0.04 ug of RXR construct, and 0.16 μg of luciferase reporter construct per well, using SuperFect™ transfection reagent (Qiagen Inc., Valencia, Calif., USA) according to the manufacturer's instructions. Ligands were tested at 8 doses from 0.01-33 μM and the final DMSO concentration was 0.33% in both control and treatment wells. After a 48 hour post-treatment and transfection incubation, the cells were assayed for luciferase activity using the Bright-Glo™ Luciferase Assay System (Promega Corporation, Madison, Wis., USA) following the manufacturer's instructions. EC50 values were measured minimally in duplicate.
(§3) Luciferase reporter gene expression was measured 48 h after cell treatment using Bright-Glo™ Luciferase Assay System from Promega (E2650). Luminescence was detected at room temperature using a Dynex MLX microtiter plate luminometer.
(§4) Each assay was conducted in two separate wells, and the two values were averaged. Fold inductions were calculated by dividing relative light units (“RLU”) in ligand treated cells with RLU in DMSO treated cells. EC50s were calculated from dose response data using a three-parameter logistic model. Relative Max FI was determined as the maximum fold induction of the tested ligand (an embodiment of the invention) observed at any concentration relative to the maximum fold induction of GS™-E ligand (3,5-dimethyl-benzoic acid N-tert-butyl-N′-(2-ethyl-3-methoxy-benzoyl)-hydrazide) observed at any concentration.

Data set [2] concerns the target wild-type Choristoneura fumiferana EcR (D, E and F domains) (Choristoneura fumiferana, UniProt O77240). It is filed as cell-based. As to conditions: WT-CtEcR, 3T3 Cells; for RMFI (relative maximum fold induction): relative to GS-E ligand. The method, then: as §1, §2, §3, §4

Data on 12 compounds can be found in patent US20200270225A1, “Chiral Diacylhydrazine Ligands for Modulating the Expression of Exogenous Genes via an Ecdysone Receptor Complex” (Intrexon Corporation, priority 2007, published 2020).

Read-outs that look alike come from different tables or passages of the source.

For the compound `Cc1cc(C)cc(C(=O)N(NC(=O)OCc2ccccc2)[C@@H](CCCO)C(C)(C)C)c1` [Example 63, (S)—N′-(1-tert-Butyl-4-hydroxy-butyl)-N′-(3,5-dimethyl-benzoyl)-hydrazine Carboxylic Acid Benzyl Ester], the EC50 in data set [1] (S) and in data set [2] (S) was over 10000 nM throughout.
In the case of `CCCC(N(NC(=O)c1cc(F)cc(F)c1)C(=O)c1cc(C)cc(C)c1)C(C)(C)C` (racemic) [rac-18], the EC50 in data set [1] (rac, read-out: EC50) is about 3 nM; in data set [2] (rac, read-out: EC50), 30.5 nM. In addition, the “RMFI (relative maximum fold induction)” value in data set [1] (rac) came to 1.00; in data set [2] (rac), 0.26.
Regarding `CCC[C@H](N(NC(=O)c1c(Cl)cccc1Cl)C(=O)c1cc(C)cc(C)c1)C(C)(C)C` [Example 41, (S)-3,5-Dimethyl-benzoic acid N-(1-tert-butyl-butyl)-N′-(2,6-dichloro-benzoyl)-hydrazide], in data set [1] (S), the 50% effective concentration (EC50) was about 700 nM and the “RMFI (relative maximum fold induction)” value amounted to 0.62. Further, in data set [2] (S), the 50% effective concentration (EC50) is about 3300 nM and the “RMFI (relative maximum fold induction)” value worked out at 0.10.
For `CCC[C@@H](N(NC(=O)OC(C)(C)C)C(=O)c1cc(C)cc(C)c1)C(C)(C)C` [Example 49, (R)—N′-(1-tert-Butyl-butyl)-N′-(3,5-dimethyl-benzoyl)-hydrazinecarboxylic acid tert-butyl Ester], the EC50 came out at 2750 nM in data set [1] (R) and 15100 nM in data set [2] (R). Besides, the “RMFI (relative maximum fold induction)” value came to 0.59 in data set [1] (R) and 0.15 in data set [2] (R).
With `CCC[C@H](N(NC(=O)c1ccc(C)cc1)C(=O)c1cc(C)cc(C)c1)C(C)(C)C` [Example 38, (S)-3,5-Dimethyl-benzoic acid N-(1-tert-butyl-butyl)-N′-(4-methyl-benzoyl)-hydrazide], in data set [1] (S), a half-maximal response (EC50) required 341 nM and the “RMFI (relative maximum fold induction)” value stood at 0.44. Besides, in data set [2] (S), the EC50 was 2170 nM and the “RMFI (relative maximum fold induction)” value is recorded as 0.25.
Regarding `CCCC(N(NC(=O)c1c(F)cccc1F)C(=O)c1cc(C)cc(C)c1)C(C)(C)C` (racemic) [rac-15], the EC50 in data set [1] (rac, read-out: EC50) was about 1 nM; in data set [2] (rac, read-out: EC50), 94 nM. Besides, the figures for the “RMFI (relative maximum fold induction)” value in data set [1] (rac) and in data set [2] (rac) were 0.92 and 0.68, respectively.
Consider `CCC[C@H](N(NC(=O)c1cccc(C)c1)C(=O)c1cc(C)cc(C)c1)C(C)(C)C` [Example 37, (S)-3,5-Dimethyl-benzoic acid N-(1-tert-butyl-butyl)-N′-(3-methyl-benzoyl)-hydrazide], for which, in data set [1] (S), the EC50 was 292 nM and the “RMFI (relative maximum fold induction)” value worked out at 0.47. For the same compound, in data set [2] (S), the EC50 was about 3300 nM and the “RMFI (relative maximum fold induction)” value was determined as 0.22.
In the same order, the values of `CCC[C@H](N(NC(=O)c1ccccc1)C(=O)c1cc(C)cc(C)c1)C(C)(C)C` [Example 32] are 267 nM, 0.38, about 3300 nM and 0.19.
For `CCCC(N(NC(=O)c1cccc(Cl)c1)C(=O)c1cc(C)cc(C)c1)C(C)(C)C` (racemic) [rac-10], the EC50 in data set [1] (rac, read-out: EC50) was 23.9 nM; in data set [2] (rac, read-out: EC50) it was about 100 nM. In addition, the “RMFI (relative maximum fold induction)” value came out at 0.86 in data set [1] (rac) and 0.50 in data set [2] (rac).
Take `CCCC(N(NC(=O)c1ccccc1Cl)C(=O)c1cc(C)cc(C)c1)C(C)(C)C` (racemic) [rac-6]: the half-maximal effective concentration (EC50) amounted to 1.2 nM in data set [1] (rac, read-out: EC50) and 59 nM in data set [2] (rac, read-out: EC50). Moreover, the “RMFI (relative maximum fold induction)” value is given as 0.95 in data set [1] (rac) and 0.72 in data set [2] (rac).
Regarding `CCC[C@H](N(NC(=O)c1ccc2ccccc2c1)C(=O)c1cc(C)cc(C)c1)C(C)(C)C` [Example S-24], in data set [2] (S, read-out: EC50), the EC50 is 5380 nM. Further, the “RMFI (relative maximum fold induction)” value in data set [2] (S) was 0.13.
As for `CCC[C@H](N(NC(=O)c1ccc(Cl)nc1)C(=O)c1cc(C)cc(C)c1)C(C)(C)C` [Example 46, (S)-3,5-Dimethyl-benzoic acid N-(1-tert-butyl-butyl)-N′-(6-chloro-pyridine-3-carbonyl)-hydrazide], in data set [1] (S), the EC50 was determined as 3990 nM and the “RMFI (relative maximum fold induction)” value stood at 0.42.

Usually EC50 stands for the concentration that produces a half-maximal response.
